Key:
TORID = TORID (Homo sapiens, UniProt Q3YBM2); conditions: prior application WO2018203262A1; cited from earlier work
inflammasome (NLRP3) = conditions: prior application WO2018203262A1; cited from earlier work
two tumor types = conditions: anti-PD-1 resistant mice, WO2018203262A1; cited from earlier work
NLRP3 inflammasome = NLRP3 inflammasome activation in LPS/ATP-treated BMDCs, IL-1β in culture supernatant by ELISA; type: cell-based; conditions: mouse BMDCs, LPS 0.25 μg/ml for 3 hr and ATP 0.5 mM, vs vehicle control (DMSO)
Protocol: (§1) Triggering inflammasome activation: Mouse bone marrow-derived dendritic cells (BMDCs) are treated with LPS and ATP to trigger NLRP3 inflammasome activation in the presence of vehicle control (DMSO) or the indicated ion channels modulators. IL-1β is measured in the culture supernatant by ELISA. • [IL-1β was used to measure the degree of inflammasome activation] • b. Inhibiting TORID-dependent ion flux: CHO-7 cells were transfected with TORID-1 and TORID-2 plasmids. Cells were then loaded with the Na^+-sensitive fluorescent dye-ANG-2-. ANG-2 mean fluorescence intensity (MFI) subtracting in each condition the MFI obtained in Na+-free buffer substituted with NMDG+ is shown. Cells left untreated or treated with the indicated drugs were studied • [MFI was used to measure the degree of inhibition of TORID-dependent ion flux.
(§2) IL-1β was measured in the culture supernatant by ELISA. • B CHO-7 cells were transfected with Tmem176b (TORID-1) and Tmem176a (TORID-2)-mcherry-coding pSecTag2B plasmids. Cells were then loaded with the Na^+-sensitive fluorescent dye Asante NaTRIUM Green 2 (ANG-2). ANG-2 mean fluorescence intensity (MFI) subtracting in each condition the MFI obtained in Na^+-free buffer substituted with NMDG^+ is shown. Cells left untreated or treated with the indicated drugs were studied.

[1] = test system: Tmem176b (TORID-1) and Tmem176a (TORID-2); assay: TORID-dependent ion flux, ANG-2 Na+-sensitive dye MFI in transfected CHO-7 cells; type: cell-based; conditions: CHO-7 cells transfected with Tmem176b and Tmem176a-mcherry pSecTag2B plasmids, vs untreated cells
Protocol: as §1, §2

Chain of TORID (Q3YBM2 whole entry): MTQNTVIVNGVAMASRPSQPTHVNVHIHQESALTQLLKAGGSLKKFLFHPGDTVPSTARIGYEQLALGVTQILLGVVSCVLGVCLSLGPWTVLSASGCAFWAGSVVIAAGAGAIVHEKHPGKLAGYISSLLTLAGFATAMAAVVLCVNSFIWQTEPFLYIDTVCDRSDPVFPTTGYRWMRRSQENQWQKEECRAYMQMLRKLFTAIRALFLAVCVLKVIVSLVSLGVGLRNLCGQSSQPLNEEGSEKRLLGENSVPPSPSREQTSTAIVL

Row | SMILES | TORID activity (TORID) | inflammasome (NLRP3) expression (inflammasome (NLRP3)) | rate of survival (two tumor types) | NLRP3 inflammasome activation (IL-1β in culture supernatant by ELISA) (NLRP3 inflammasome) | TORID activity (ANG-2 MFI, Na+-free NMDG+ buffer MFI subtracted) [1]
1 | COC(=O)C1=C(C)NC(C)=C([N+](=O)[O-])C1c1ccccc1C(F)(F)F (single isomer, unassigned; (+)) [(+)BAY K8644, Methyl 2,6-dimethyl-5-nitro-4-[2-(trifluoromethyl)phenyl]-1,4-dihydropyridine-3-carboxylate] | inhibited TORID activity | increased inflammasome (NLRP3) expression | higher rate of survival | – | –
2 | CCN(CC)CC(=O)Nc1c(C)cccc1C [Lidocaine] | – | – | – | enhance NLRP3 inflammasome activation | inhibit TORID activity
3 | CCN1C[C@]2(COC)[C@H](O)C[C@H](OC)[C@@]34[C@@H]5C[C@@]6(O)[C@H](OC(=O)c7ccccc7)[C@@H]5[C@@](OC(C)=O)([C@@H]([C@H](OC)[C@H]23)[C@@H]14)[C@@H](O)[C@@H]6OC [Aconitine] | – | – | – | enhance NLRP3 inflammasome activation | inhibit TORID activity
4 | CCN(CC)CCNC(=O)c1ccc(N)cc1 [Procainamide] | – | – | – | enhance NLRP3 inflammasome activation | inhibit TORID activity

Source: patent US12263143B2, “Ionic channel modulation as a method for treating tumors through inflammasome activation” (priority 2019, dated 2025)
